Laboratory results from PubChem BioAssay AID1963835 (Molecular Pharmacology Branch, DTP, NCI, 2024).

Tested on: 699152-130-R-J1-PDC complex spheroid viability
Assay: Anticancer human tumor 699152-130-R-J1-PDC patient-derived pancreatic carcinoma cell line growth inhibition [POLQ]
Conditions: for IC50: curve of first compound; for viability, T/C: stronger effect = lower value; active = viability on the fitted dose curve at most 10% of control; inactive = the rest
Outline: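 PDC + HUVEC + MSC complex spheroids; POLQ inhibitors ± partner drugs; top conc. at/near clinical Cmax, else 10 microM (SN-38 1 microM), half-log dilutions; 37 degrees C, 5% CO2.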

[1] = second compound 0.0316 µM, first compound 0.0316 µM
[2] = second compound 0.0316 µM, first compound 0.1 µM
[3] = second compound 0.0316 µM, first compound 0.316 µM
[4] = second compound 0.0316 µM, first compound 1 µM
[5] = second compound 0.1 µM, first compound 0.0316 µM
[6] = second compound 0.1 µM, first compound 0.1 µM
[7] = second compound 0.1 µM, first compound 0.316 µM
[8] = second compound 0.1 µM, first compound 1 µM
[9] = second compound 0.316 µM, first compound 0.0316 µM
[10] = second compound 0.316 µM, first compound 0.1 µM
[11] = second compound 0.316 µM, first compound 0.316 µM
[12] = second compound 0.316 µM, first compound 1 µM
[13] = second compound 1 µM, first compound 0.0316 µM
[14] = second compound 1 µM, first compound 0.1 µM
[15] = second compound 1 µM, first compound 0.316 µM
[16] = second compound 1 µM, first compound 1 µM
[17] = second compound 3.16 µM, first compound 0.0316 µM
[18] = second compound 3.16 µM, first compound 0.1 µM
[19] = second compound 3.16 µM, first compound 0.316 µM
[20] = second compound 3.16 µM, first compound 1 µM
[21] = second compound 10 µM, first compound 0.0316 µM
[22] = second compound 10 µM, first compound 0.1 µM
[23] = second compound 10 µM, first compound 0.316 µM
[24] = second compound 10 µM, first compound 1 µM
[25] = second compound 0.0316 µM, first compound 3.16 µM
[26] = second compound 0.0316 µM, first compound 10 µM
[27] = second compound 0.1 µM, first compound 3.16 µM
[28] = second compound 0.1 µM, first compound 10 µM
[29] = second compound 0.316 µM, first compound 3.16 µM
[30] = second compound 0.316 µM, first compound 10 µM
[31] = second compound 1 µM, first compound 3.16 µM
[32] = second compound 1 µM, first compound 10 µM
[33] = second compound 3.16 µM, first compound 3.16 µM
[34] = second compound 3.16 µM, first compound 10 µM
[35] = second compound 10 µM, first compound 3.16 µM
[36] = second compound 10 µM, first compound 10 µM
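Also: spheroids exposed to agents for 7 days before viability reading.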
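For viability, T/C in this document: percent of DMSO vehicle control viability so 100% = vehicle and 0% = no viable signal.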

CCc1c2c(nc3ccc(O)cc13)-c1cc3c(c(=O)n1C2)COC(=O)[C@]3(O)CC + Cc1cccc(N(C)C(=O)C2C(O)CCN2c2nc(C)cc(C(F)(F)F)c2C#N)c1
62.7 nM: IC50 (second compound 3.16 µM)
37.1 nM: IC50 (second compound 0.1 µM)
inactive: viability, T/C (second compound 0.0316 µM, first compound 0.00316 µM) 64.4% | viability, T/C (second compound 0.0316 µM, first compound 0.01 µM) 54.2% | viability, T/C [1] 48.2% | viability, T/C [2] 46.4% | viability, T/C [3] 30.4% | viability, T/C [4] 10.9% | viability, T/C (second compound 0.1 µM, first compound 0.00316 µM) 78.5% | viability, T/C (second compound 0.1 µM, first compound 0.01 µM) 57.1% | viability, T/C [5] 49.8% | viability, T/C [6] 44.9% | viability, T/C [7] 26.1% | viability, T/C [8] 8.04% | viability, T/C (second compound 0.316 µM, first compound 0.00316 µM) 79.2% | viability, T/C (second compound 0.316 µM, first compound 0.01 µM) 55.2% | viability, T/C [9] 50.5% | viability, T/C [10] 51.6% | viability, T/C [11] 29.1% | viability, T/C [12] 8.39% | viability, T/C (second compound 1 µM, first compound 0.00316 µM) 77.9% | viability, T/C (second compound 1 µM, first compound 0.01 µM) 61.1% | viability, T/C [13] 52.3% | viability, T/C [14] 47.4% | viability, T/C [15] 26.1% | viability, T/C [16] 10.2% | viability, T/C (second compound 3.16 µM, first compound 0.00316 µM) 87% | viability, T/C (second compound 3.16 µM, first compound 0.01 µM) 68.8% | viability, T/C [17] 56.3% | viability, T/C [18] 48.6% | viability, T/C [19] 29.7% | viability, T/C [20] 12.6% | viability, T/C (second compound 10 µM, first compound 0.00316 µM) 78.5% | viability, T/C (second compound 10 µM, first compound 0.01 µM) 58% | viability, T/C [21] 51.4% | viability, T/C [22] 47.9% | viability, T/C [23] 33.2% | viability, T/C [24] 9.43%
48.8 nM: IC50 (second compound 0.316 µM)
46.5 nM: IC50 (second compound 1 µM)
49.8 nM: IC50 (second compound 10 µM)
39.2 nM: IC50 (second compound 0.0316 µM)

Nc1ccn(C2OC(CO)C(O)C2(F)F)c(=O)n1 (stereo not drawn) + COC1C(OC(N)=O)C(O)C(Oc2ccc3c(O)c(NC(=O)c4ccc(O)c(CC=C(C)C)c4)c(=O)oc3c2C)OC1(C)C
376 nM: IC50 (second compound 0.316 µM)
765 nM: IC50 (second compound 10 µM)
202 nM: IC50 (second compound 0.0316 µM)
264 nM: IC50 (second compound 1 µM)
262 nM: IC50 (second compound 0.1 µM)
475 nM: IC50 (second compound 3.16 µM)
inactive: viability, T/C [1] 68.1% | viability, T/C [2] 52.2% | viability, T/C [3] 42.9% | viability, T/C [4] 48.3% | viability, T/C [25] 39% | viability, T/C [26] 31.2% | viability, T/C [5] 73.5% | viability, T/C [6] 56.1% | viability, T/C [7] 48.7% | viability, T/C [8] 44.8% | viability, T/C [27] 35.4% | viability, T/C [28] 34.3% | viability, T/C [9] 64.4% | viability, T/C [10] 56.6% | viability, T/C [11] 49.7% | viability, T/C [12] 44.4% | viability, T/C [29] 46.4% | viability, T/C [30] 35.4% | viability, T/C [13] 70% | viability, T/C [14] 51.5% | viability, T/C [15] 53.3% | viability, T/C [16] 45.1% | viability, T/C [31] 43.2% | viability, T/C [32] 40.1% | viability, T/C [17] 61.7% | viability, T/C [18] 55.6% | viability, T/C [19] 51.4% | viability, T/C [20] 51.5% | viability, T/C [33] 37.1% | viability, T/C [34] 40.8% | viability, T/C [21] 72.1% | viability, T/C [22] 56.7% | viability, T/C [23] 54.8% | viability, T/C [24] 51.3% | viability, T/C [35] 44.1% | viability, T/C [36] 38%

CC1COCCN1c1cc(C2(S(C)(=N)=O)CC2)nc(-c2ccnc3[nH]ccc23)n1 (stereo not drawn) + COC1C(OC(N)=O)C(O)C(Oc2ccc3c(O)c(NC(=O)c4ccc(O)c(CC=C(C)C)c4)c(=O)oc3c2C)OC1(C)C
> 10000 nM: IC50 (second compound 0.0316 µM) | IC50 (second compound 0.1 µM) | IC50 (second compound 0.316 µM) | IC50 (second compound 1 µM) | IC50 (second compound 3.16 µM) | IC50 (second compound 10 µM)
inactive: viability, T/C [1] 103% | viability, T/C [2] 102% | viability, T/C [3] 95.4% | viability, T/C [4] 96.6% | viability, T/C [25] 79% | viability, T/C [26] 69.3% | viability, T/C [5] 89.8% | viability, T/C [6] 88% | viability, T/C [7] 90.2% | viability, T/C [8] 101% | viability, T/C [27] 73.3% | viability, T/C [28] 60.4% | viability, T/C [9] 98% | viability, T/C [10] 101% | viability, T/C [11] 106% | viability, T/C [12] 88.3% | viability, T/C [29] 78.8% | viability, T/C [30] 63% | viability, T/C [13] 119% | viability, T/C [14] 97.6% | viability, T/C [15] 108% | viability, T/C [16] 92.9% | viability, T/C [31] 77.8% | viability, T/C [32] 66.5% | viability, T/C [17] 108% | viability, T/C [18] 99.2% | viability, T/C [19] 98.1% | viability, T/C [20] 86.4% | viability, T/C [33] 69.3% | viability, T/C [34] 64.5% | viability, T/C [21] 104% | viability, T/C [22] 107% | viability, T/C [23] 90.7% | viability, T/C [24] 90.7% | viability, T/C [35] 86% | viability, T/C [36] 87.3%

C#Cc1c(F)ccc2cc(O)cc(-c3ncc4c(N5CC6CCC(C5)N6)nc(OCC56CCCN5CC(F)C6)nc4c3F)c12 (stereo not drawn) + Nc1ccc(C#CCN(C(=O)Cc2ncc(C(F)(F)F)cc2C(F)(F)F)c2ccc(F)cc2)nn1
< 31.6 nM: IC50 (second compound 0.0316 µM) | IC50 (second compound 0.1 µM) | IC50 (second compound 0.316 µM) | IC50 (second compound 1 µM) | IC50 (second compound 3.16 µM) | IC50 (second compound 10 µM)
inactive: viability, T/C [1] 26% | viability, T/C [2] 18.8% | viability, T/C [3] 14.6% | viability, T/C [4] 12.1% | viability, T/C [25] 14.2% | viability, T/C [26] 11.9% | viability, T/C [5] 25.1% | viability, T/C [6] 21.8% | viability, T/C [7] 15.4% | viability, T/C [8] 13.7% | viability, T/C [27] 13.3% | viability, T/C [28] 13.2% | viability, T/C [9] 24% | viability, T/C [10] 16.3% | viability, T/C [11] 18.9% | viability, T/C [12] 12.3% | viability, T/C [29] 12.4% | viability, T/C [30] 12.1% | viability, T/C [13] 18.8% | viability, T/C [14] 18.8% | viability, T/C [15] 13.5% | viability, T/C [16] 12.8% | viability, T/C [31] 12.8% | viability, T/C [32] 12.4% | viability, T/C [17] 21.6% | viability, T/C [18] 16.9% | viability, T/C [19] 13% | viability, T/C [20] 13.3% | viability, T/C [33] 11.8% | viability, T/C [34] 14.2% | viability, T/C [21] 32.2% | viability, T/C [22] 18.8% | viability, T/C [23] 14.3% | viability, T/C [24] 14.6% | viability, T/C [35] 13.5% | viability, T/C [36] 11.5%
